One experiment concerns MonoMac 6 cells on DMVEC. The experiment is described as follows: Monocyte recruitment on microvascular endothelium under physiological flow (laminar flow assay). It counts as cell-based, human. On the procedure: The interaction of monocytes with DMVEC was studied in laminar flow assays performed essentially as descried (Weber C. et al., 1997, Kukerti S. et al., 1997, Piali L. et al., 1998). Briefly, DMVEC were grown to confluence in 35 mm Petri dishes, and stimulated with IL-1β (5 ng/ml) or left untreated for 12 h. The plates were assembled as the lower wall m a parallel wall flow chamber and mounted on the stage of an Olympus IMT-2 inverted microscope with 20× and 40× phase contrast objectives. Monotypes (MonoMac 6 cells) were cultured as reported (Ziegler-Heitbrock H. W. L. et al., 1988, Weber C. et al., 1993) and resuspended at 10^6/ml in assay buffer (HBSS) containing 10 mM Hepes/pH 7.4 and 0.5% HAS. Shortly before assay, 1 mM Mg^2+and 1 mM Ca^2+ was added. The cell suspensions were kept in a heating block at 37° C. during the assay and were perfused into the flow chamber at a rate of 1.5 dyn/cm for 5 min. For inhibition experiments, monocytes were preincubated with Met-RANTES at different concentrations (0.01-1 μg/ml) for 30 min on ice. The number of firmly adherent cells after 5 rain was quantified in multiple fields (at least 5 per experiment) by analysis of images recorded with a long integration JVC 3CCD video camera and a JVC SR L 900 E video recorder, and were expressed as cells/mm^2. The type of adhesion analysed was restricted to primary, i.e. direct interactions of monocytes with endotbelium. As an inverse measure of firm arrest, the number of cells rolling at reduced velocity on endothelium was determined within the last 30 sec. of the 5 min intervals, and were assessed as the percentage of all interactions in the field. The number of cells spreading or transmigrating after 5 min intervals was determined in high power fields as described (Luscinskas F. W. et al., 1994), and expressed as percentage of cells firmly attached.
In an attempt to gain insight into potential mechanisms of action of Met-RANTES, we studied whether a blockade of RANTES receptors could inhibit the firm arrest and diapedesis of monocytes on microvascular endothelium. To this end, we used monocytic MonoMac 6 cells that show the adhesive characteristics and integrin repertoire of mature monocytes, and express several chemokine receptors including CCR1 (Erl W. et al., 1995). DMVEC were grown to confluence on Petri dishes which were either left unstimulated or were activated with IL-1β (5 ng/ml) for 12 h. […] Under such physiological flow conditions, MonoMac 6 cells undergo short periods of rolling, and the attachment of a proportion of cells can be readily converted into shear-resistant arrest. After 5 min of accumulation, the number of MonoMac 6 cells that had undergone firm adhesion to the endothelium was determined (FIG. 2(a)).

In experiment [1] the test system is dermal microvascular endothelium (DMVEC). The experiment is described as follows: In vitro RANTES binding assay on DMVEC (modified ELISA). Also noted: species or system human. On the procedure: The DMVEC were grown to confluency on coated 96 well flat bottom plates, The resultant endothelial monolayer was either left untreated or treated with various concentrations of IL-L1β (0.1 to 5 ng/ml) for 12 h. The RANTES binding assay was a modification of a previously described procedure (Pattison J. et al., 1994, Wiedermann C. J. et al., 1993). Horseradish, peroxidase (HRP) conjugated anti-human-RANTES monoclonal antibody VL1 (0.1 μg) was pre-incubated at 25° C. for 30 min with an excess of recombinant human RANTES (20 μg/ml) in DMVEC growth media (without supplements). The chemokine-antibody complex was added then used to assay the relative chemokine binding capacity of the microvascular endothelium. The endothelial monolayer was gently washed 1× with unsupplemented growth media (25° C.) and the chemokine-antibody complex was added and incubated at 25° C. for 30 min. The wells were then washed four times with media without sera at 25° C. […] The optical density at 406 nm of the plate was determined using an ELISA plate reader.
Since a reduction of monocyte infiltration into vascular luminal spaces represented a prominent feature of Met-RANTES treatment in both transplantation models, we set out to study potential mechanisms for this effect. […] Using an ELISA-like format, the capacity of DMVEC to bind the antigen-mAb complex as opposed to mAb alone was determined. […]
In general terms: An ELISA detects its analyte on a solid surface through an enzyme-linked reagent.

Experiment [2] concerns human microvascular endothelial cells (DMVEC). The experiment is described as follows: FACS analysis of adhesion molecule surface expression on DMVEC. It is filed as cell-based. The following applies: IL-1β 5 ng/ml, 12 hr; 3 independent experiments. On the procedure: Flow cytometry analysis of dermal microvascular cells (DMVEC) was performed essentially as described (Weber C. et al., 1995). Briefly, confluent DMVEC stimulated with IL-Iβ (5 ng/ml), or left untreated for 12 h, were trypsinized, reacted with IL-saturating concentrations of ICAM-1 mAb RR1/1 (kindly provided by Dr. R. Rothlein), E-selectin mAb, VCAM-1 mAb (both Serotec), or isotype control for 30 min on ice, stained with fluorescein isothiocyanate (FITC)-conjuzated goat anti-mouse IgG (Boehringer Mannheim), and analysed in a FACScan (Becton Dickinson). After correction for unspecific binding, data were expressed as specific mean log fluorescence intensity (sMFI) in channels.
In general terms: A flow cytometer gives signals particle by particle.

Values joined by “and” are separate entries in the source; they are usually repeats but may differ in a detail not shown here. Identical values can stand only once.

For “RANTES: recombinant human C-C chemokine (regulated upon activation, normal T-cell expressed and secreted)”, the “spreading or transmigration of monocytes” value with MonoMac 6 cells on DMVEC (after firm arrest, 5 min, IL-1β activated DMVEC) is “did not alter”. For the same substance, the “firm adhesion of monocytic cells to unstimulated microvascular endothelium” value in the experiment on MonoMac 6 cells on DMVEC (endothelial cells pre-exposed to RANTES) is on record as “no significant effect”. For the same substance, the “firm arrest and accumulation of monocytes on IL-1β-activated microvascular endothelium” value with MonoMac 6 cells on DMVEC (endothelium pre-exposed to RANTES (10 ng/ml, 30 min), within 5 min) is recorded as “markedly enhanced”. In the experiment on MonoMac 6 cells on DMVEC (inverse measure of firm arrest, IL-1β activated DMVEC), the “fraction of monocytes rolling on the activated microvascular endothelium” value is “reduced”. Also, the “RANTES binding to microvascular endothelium following prestimulation” value in experiment [1] (prestimulation with proinflammatory cytokine (5 ng/ml, 12 hours)) is “greatly increased”. In experiment [1] (resting DMVEC, HRP-VL1 mAb/RANTES complex), the “RANTES binding to microvascular endothelium without prestimulation” value was “could bind some RANTES protein”.
As for “IL-1β: proinflammatory cytokine purchased from Sigma, used to activate DMVEC”, in experiment [2], the “ICAM-1 surface expression, SMFI” value is 502 channels and 592 channels and 432 channels.
